Data from patent publication US6706663B2, “Herbicidal 3-heterocyclic substituted benzisothiazole and benzisoxazole compounds” (Wyeth, priority 2000, dated 2004).

How the values were obtained:
ORYSAT (Rice, Tebonnet) [1] = test: Flooded paddy, post-transplant rice tolerance; type: in vivo, Oryza sativa, (L.) Tebonnet; conditions: flooded paddy, post-transplant rice, rated 3-4 weeks after treatment, 0-9 rating scale
Summary of the method: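 Two ten-day-old Tebonnet rice seedlings transplanted into silt loam, then flooded with water held at 1.5–3 cm above soil; herbicide applied post-transplant. Plants kept in greenhouse and rated visually 0–9 versus untreated control for stand, vigor, malformation, size and chlorosis.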

[2] = test system: ABUTH (Abutilon theophrasti); test: Preemergence herbicidal evaluation; type: in vivo, Medic.; conditions: preemergence, rated 4-5 weeks after treatment
[3] = test system: MOOVA (Monochoria vaginalis); test: Flooded paddy, postemergence weed control; type: in vivo, Presl.; conditions: postemergence weeds, rated 3-4 weeks after treatment
Summary of the method: (§1)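 Weeds 3–5 cm tall and rice at 1.5–2.5 leaf stage in containers flooded 1.5–3 cm deep; compounds in 50/50 v/v aqueous/acetone injected into flood water at about 0.0320–0.2500 kg/ha. Greenhouse-held; visual 0–9 rating versus untreated control after three to four weeks.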

ORYSAT (Rice, Tebonnet) [4] = test: Postemergence herbicidal evaluation; type: in vivo, Oryza sativa, (L.) Tebonnet
Summary of the method: (§2)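 Seedlings grown about two weeks in flats, sprayed, then kept under standard greenhouse care. Rated visually 4–5 weeks after treatment on a 0–9 scale (stand, vigour, malformation, size, chlorosis, overall appearance) relative to untreated control; repeat tests averaged.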

[5] = test system: ECHORC (Echinochloa oryzoides); test: Flooded paddy, postemergence weed control; type: in vivo, Echinochloa oryzoides (Ard.) Fritsch.; conditions: postemergence weeds, rated 3-4 weeks after treatment
Summary of the method: as §1

[6] = test system: ECHCG (Echinochloa crus-galli); test: Preemergence herbicidal evaluation; type: in vivo, (L.) Beau; conditions: preemergence, rated 4-5 weeks after treatment
Summary of the method: (§3)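 Seeds planted in potting soil cups and sprayed preemergence with aqueous acetone compound solution. Greenhouse-grown; rated 4–5 weeks after treatment on a 0-9 visual scale (stand, vigor, malformation, size, chlorosis, appearance) versus control.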

SETVI (Setaria viridis) [7] = test: Preemergence herbicidal evaluation; type: in vivo, (L.) Beau; conditions: preemergence, rated 4-5 weeks after treatment
Summary of the method: as §3

[8] = test system: CYPSE (Cyperus serotinus); test: Flooded paddy, postemergence weed control; type: in vivo, Rottb.; conditions: postemergence weeds, rated 3-4 weeks after treatment
Summary of the method: as §1

[9] = test system: SAGPY (Sagittaria pygmaea); test: Flooded paddy, postemergence weed control; type: in vivo, L.; conditions: postemergence weeds, rated 3-4 weeks after treatment
Summary of the method: as §1

[10] = test system: MOOVA (Monochoria vaginalis); test: Flooded paddy, preemergence weed control; type: in vivo, Presl.; conditions: rated 3-4 weeks after treatment, 0-9 rating scale
Summary of the method: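 In this preemergence paddy assay, weed seeds or organs are sown at up to 0.5 cm in silt loam and covered by 1.5–3 cm of water for the full test period. After treatment the pots are kept in a greenhouse, and herbicidal effect is rated 0-9 visually against a control.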

SETVI (Setaria viridis) [11] = test: Postemergence herbicidal evaluation; type: in vivo, (L.) Beau
Summary of the method: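 First, seedlings are raised in flats for about two weeks. Next, compound dispersed in 50/50 acetone/water with 0.5% TWEEN 20 is sprayed at 40 psi to deliver about 0.0040–1.000 kg/ha. Plants are then maintained in the greenhouse and rated 0-9 after four to five weeks.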

ORYSAT (Rice, Tebonnet) [12] = test: Flooded paddy, post-transplant and postemergence rice tolerance; type: in vivo, Oryza sativa, (L.) Tebonnet; conditions: post-transplant rice, rated 3-4 weeks after treatment
Summary of the method: as §1

CYPIR (Cyperus iria) = test: Flooded paddy, postemergence weed control; type: in vivo; conditions: postemergence weeds, rated 3-4 weeks after treatment
Summary of the method: as §1

[13] = test system: TRZAWR (Wheat, Winter, cv Riband); test: Postemergence herbicidal evaluation; type: in vivo, Triticum aestivum
Summary of the method: as §2

CCc1cc(-c2nsc3ccc(-n4c(=O)cc(C(F)(F)F)n(C)c4=O)cc23)c(CC)s1 [Compound 8, 3-[3-(2,5-diethyl-3-thienyl)-1,2-benzisothiazol-5-yl]-1-methyl-6-(trifluoromethyl)uracil]
2.0: herbicide rating (0-9) ORYSAT (rice tolerance) (ORYSAT (Rice, Tebonnet) [12]; 0.0620 kg/ha into flood water) | herbicide rating (0-9) ORYSAT (rice tolerance) (ORYSAT (Rice, Tebonnet) [12]; 0.1250 kg/ha into flood water)
0.0: ABUTH preemergence herbicidal rating ([2]; Rate 0.0620 kg/ha) | ECHCG preemergence herbicidal rating ([6]; Rate 0.0620 kg/ha) | ECHCG preemergence herbicidal rating ([6]; Rate 0.1250 kg/ha) | herbicide rating (0-9) CYPSE ([8]; 0.0320 kg/ha into flood water) | herbicide rating (0-9) CYPSE ([8]; 0.0620 kg/ha into flood water) | herbicide rating (0-9) CYPSE ([8]; 0.1250 kg/ha into flood water) | herbicide rating (0-9) SAGPY ([9]; 0.0320 kg/ha into flood water) | herbicide rating (0-9) SAGPY ([9]; 0.0620 kg/ha into flood water)
3.5: herbicide rating (0-9) ECHORC ([5]; 0.0320 kg/ha into flood water)
5.0: herbicide rating (0-9) ECHORC ([5]; 0.1250 kg/ha into flood water) | Postemergence herbicidal rating, TRZAWR ([13]; rate 0.0620 kg/ha)
4.0: herbicide rating (0-9) ECHORC ([5]; 0.0620 kg/ha into flood water) | Postemergence herbicidal rating, SETVI (SETVI (Setaria viridis) [11]; rate 0.0620 kg/ha) | Postemergence herbicidal rating, TRZAWR ([13]; rate 0.0320 kg/ha)
1.5: herbicidal rating, ORYSAT (rice tolerance) (ORYSAT (Rice, Tebonnet) [1]; rate 0.0320 kg/ha)
5.5: herbicide rating (0-9) MOOVA ([3]; 0.1250 kg/ha into flood water)
9.0: ABUTH preemergence herbicidal rating ([2]; Rate 0.1250 kg/ha) | ABUTH preemergence herbicidal rating ([2]; Rate 0.2500 kg/ha) | ECHCG preemergence herbicidal rating ([6]; Rate 0.2500 kg/ha) | SETVI preemergence herbicidal rating (SETVI (Setaria viridis) [7]; Rate 0.0620 kg/ha) | SETVI preemergence herbicidal rating (SETVI (Setaria viridis) [7]; Rate 0.1250 kg/ha) | SETVI preemergence herbicidal rating (SETVI (Setaria viridis) [7]; Rate 0.2500 kg/ha) | herbicidal rating, MOOVA ([10]; rate 0.0080 kg/ha) | herbicidal rating, MOOVA ([10]; rate 0.0320 kg/ha) | herbicidal rating, MOOVA ([10]; rate 0.1250 kg/ha) | herbicide rating (0-9) CYPIR (CYPIR (Cyperus iria); 0.0320 kg/ha into flood water) | herbicide rating (0-9) CYPIR (CYPIR (Cyperus iria); 0.0620 kg/ha into flood water) | herbicide rating (0-9) CYPIR (CYPIR (Cyperus iria); 0.1250 kg/ha into flood water)
4.5: herbicide rating (0-9) MOOVA ([3]; 0.0320 kg/ha into flood water) | herbicide rating (0-9) MOOVA ([3]; 0.0620 kg/ha into flood water)
1.0: herbicidal rating, ORYSAT (rice tolerance) (ORYSAT (Rice, Tebonnet) [1]; rate 0.0080 kg/ha) | herbicide rating (0-9) SAGPY ([9]; 0.1250 kg/ha into flood water) | herbicide rating (0-9) ORYSAT (rice tolerance) (ORYSAT (Rice, Tebonnet) [12]; 0.0320 kg/ha into flood water)
2.7: herbicidal rating, ORYSAT (rice tolerance) (ORYSAT (Rice, Tebonnet) [1]; rate 0.1250 kg/ha)
3.0: Postemergence herbicidal rating, ORYSAT (ORYSAT (Rice, Tebonnet) [4]; rate 0.0320 kg/ha) | Postemergence herbicidal rating, ORYSAT (ORYSAT (Rice, Tebonnet) [4]; rate 0.0620 kg/ha) | Postemergence herbicidal rating, SETVI (SETVI (Setaria viridis) [11]; rate 0.0320 kg/ha)

Cn1c(C(F)(F)F)cc(=O)n(-c2ccc3snc(-c4ccsc4)c3c2)c1=O [Compound 1, 1-methyl-3-[3-(3-thienyl)-1,2-benzisothiazol-5-yl]-6-(trifluoromethyl)uracil]
7.0: herbicidal rating, ORYSAT (rice tolerance) (ORYSAT (Rice, Tebonnet) [1]; rate 0.1250 kg/ha) | herbicide rating (0-9) CYPSE ([8]; 0.1250 kg/ha into flood water) | herbicide rating (0-9) SAGPY ([9]; 0.0620 kg/ha into flood water) | Postemergence herbicidal rating, SETVI (SETVI (Setaria viridis) [11]; rate 0.0320 kg/ha) | herbicide rating (0-9) ORYSAT (rice tolerance) (ORYSAT (Rice, Tebonnet) [12]; 0.0320 kg/ha into flood water) | herbicide rating (0-9) ORYSAT (rice tolerance) (ORYSAT (Rice, Tebonnet) [12]; 0.0620 kg/ha into flood water) | herbicide rating (0-9) ORYSAT (rice tolerance) (ORYSAT (Rice, Tebonnet) [12]; 0.1250 kg/ha into flood water)
3.5: Postemergence herbicidal rating, ORYSAT (ORYSAT (Rice, Tebonnet) [4]; rate 0.0320 kg/ha) | Postemergence herbicidal rating, ORYSAT (ORYSAT (Rice, Tebonnet) [4]; rate 0.0620 kg/ha) | Postemergence herbicidal rating, TRZAWR ([13]; rate 0.0320 kg/ha) | Postemergence herbicidal rating, TRZAWR ([13]; rate 0.0620 kg/ha)
4.0: herbicidal rating, ORYSAT (rice tolerance) (ORYSAT (Rice, Tebonnet) [1]; rate 0.0080 kg/ha) | herbicide rating (0-9) CYPSE ([8]; 0.0620 kg/ha into flood water) | herbicide rating (0-9) SAGPY ([9]; 0.0320 kg/ha into flood water)
7.3: ECHCG preemergence herbicidal rating ([6]; Rate 0.0620 kg/ha)
5.5: herbicidal rating, ORYSAT (rice tolerance) (ORYSAT (Rice, Tebonnet) [1]; rate 0.0320 kg/ha)
5.0: Postemergence herbicidal rating, ORYSAT (ORYSAT (Rice, Tebonnet) [4]; rate 0.1250 kg/ha)
4.3: Postemergence herbicidal rating, TRZAWR ([13]; rate 0.1250 kg/ha)
9.0: ABUTH preemergence herbicidal rating ([2]; Rate 0.0620 kg/ha) | ABUTH preemergence herbicidal rating ([2]; Rate 0.1250 kg/ha) | ABUTH preemergence herbicidal rating ([2]; Rate 0.2500 kg/ha) | herbicide rating (0-9) MOOVA ([3]; 0.0320 kg/ha into flood water) | herbicide rating (0-9) MOOVA ([3]; 0.0620 kg/ha into flood water) | herbicide rating (0-9) MOOVA ([3]; 0.1250 kg/ha into flood water) | herbicide rating (0-9) ECHORC ([5]; 0.0320 kg/ha into flood water) | herbicide rating (0-9) ECHORC ([5]; 0.0620 kg/ha into flood water) | herbicide rating (0-9) ECHORC ([5]; 0.1250 kg/ha into flood water) | ECHCG preemergence herbicidal rating ([6]; Rate 0.2500 kg/ha) | SETVI preemergence herbicidal rating (SETVI (Setaria viridis) [7]; Rate 0.0620 kg/ha) | SETVI preemergence herbicidal rating (SETVI (Setaria viridis) [7]; Rate 0.1250 kg/ha) | SETVI preemergence herbicidal rating (SETVI (Setaria viridis) [7]; Rate 0.2500 kg/ha) | herbicide rating (0-9) SAGPY ([9]; 0.1250 kg/ha into flood water) | herbicidal rating, MOOVA ([10]; rate 0.0080 kg/ha) | herbicidal rating, MOOVA ([10]; rate 0.0320 kg/ha) | herbicidal rating, MOOVA ([10]; rate 0.1250 kg/ha) | herbicide rating (0-9) CYPIR (CYPIR (Cyperus iria); 0.0320 kg/ha into flood water) | herbicide rating (0-9) CYPIR (CYPIR (Cyperus iria); 0.0620 kg/ha into flood water) | herbicide rating (0-9) CYPIR (CYPIR (Cyperus iria); 0.1250 kg/ha into flood water)
6.5: Postemergence herbicidal rating, SETVI (SETVI (Setaria viridis) [11]; rate 0.0620 kg/ha)
2.0: herbicide rating (0-9) CYPSE ([8]; 0.0320 kg/ha into flood water)
8.0: ECHCG preemergence herbicidal rating ([6]; Rate 0.1250 kg/ha) | Postemergence herbicidal rating, SETVI (SETVI (Setaria viridis) [11]; rate 0.1250 kg/ha)
